Values quoted from earlier work as cited in US12648940B2, “Bupivacaine liquid formulations” (FRESENIUS KABI AUSTRIA GMBH, priority 2023, dated 2026).

- pKa: approximately 8.1
- pKa of the amine of the piperidine group (at 25° C.): ~8.1
SMILES: CCCCN1CCCCC1C(=O)Nc1c(C)cccc1C (centres unmarked) [Bupivacaine, 1-butyl-N-(2,6-dimethylphenyl)piperidine-2-carboxamide]
